This note sets out measurements from patent US11286414B2, “Sodium nitroprusside and nitrate metabolic inhibition of sulfate-reducing microbes to control sulfide production” (UTI Limited Partnership, priority 2017, dated 2022).

The test system of assay [1] is 4PW SRB consortia. The assay is described as follows: Comparison of SNP with other biocides on souring. Type of assay: cell-based, SRB consortia enriched from 4PW. To be noted: 10 ppm added at start of growth, one month.
For assay [2], the system named is SRB consortia. Briefly: Souring control in sand-packed bioreactors containing heavy oil. Type of assay: cell-based, SRB consortia from MHGC produced water (18PW).

Consider “tetrakishydroxymethyl phosphonium sulfate [THPS]”, for which the “metabolic activity and growth of SRB (sulfide, sulfate, lactate concentrations)” value (shortened to “metabolic activity and growth of SRB”) in assay [1] is “not effective at this low dosage”.
On to benzalkonium chloride [BAC], for which the “metabolic activity and growth of SRB” value in assay [1] is reported as “not effective at this low dosage”.
In the case of `O=[N+]([O-])[O-].[Na+]` [nitrate, sodium nitrate], the “effect on sulfide concentration in the effluent” value in assay [2] (injection of 2 PV CSBK-S with 85 ppm (1 mM) or 170 ppm (2 mM) nitrate) is given as “did not affect the sulfide concentration in the effluent”. Also, in assay [2] (injection of 2 PV of 340 ppm (4 mM) nitrate), the sulfate reduction result was “inhibition of sulfate reduction was observed”. Further, in assay [2] (oil as electron donor), the “concentration that inhibited sulfate reduction / controlled souring when used singly” value stood at 340 ppm.
In the case of cocodiamine, in assay [1], the “metabolic activity and growth of SRB” value is listed as “not effective at this low dosage”.
The same measure, in the same setting: the same measure for `O=CCCCC=O` [Glut, glutaraldehyde]: “not effective at this low dosage”.
